Laboratory results: ChEMBL document CHEMBL1134176, “Structure-activity relationships of novel anti-malarial agents. Part 2: cinnamic acid derivatives” (Bioorg Med Chem Lett, 2001)

Test system: Plasmodium falciparum
Experiment: Inhibitory activity against Plasmodium falciparum Dd2 in erythrocytes
Type: functional, organism-based

IC50 [nM] | Structure (SMILES)
5500 | Cc1ccc(CC(=O)Nc2ccc(NC(=O)/C=C/c3ccc(N)cc3)cc2C(=O)c2ccccc2)cc1
850 | CCOc1ccc(/C=C/C(=O)Nc2ccc(NC(=O)Cc3ccc(C)cc3)c(C(=O)c3ccccc3)c2)cc1
5800 | Cc1ccc(CC(=O)Nc2ccc(NC(=O)/C=C/c3ccccc3)cc2C(=O)c2ccccc2)cc1
1100 | CCCCOc1ccc(/C=C/C(=O)Nc2ccc(NC(=O)Cc3ccc(C)cc3)c(C(=O)c3ccccc3)c2)cc1
1200 | CCc1ccc(/C=C/C(=O)Nc2ccc(NC(=O)Cc3ccc(C)cc3)c(C(=O)c3ccccc3)c2)cc1
43000 | Cc1ccc(CC(=O)Nc2ccc(NC(=O)/C=C/c3ccc(C=C(C#N)C#N)cc3)cc2C(=O)c2ccccc2)cc1
1400 | Cc1ccc(/C=C/C(=O)Nc2ccc(NC(=O)Cc3ccc(C)cc3)c(C(=O)c3ccccc3)c2)cc1
200 | CCCOc1ccc(/C=C/C(=O)Nc2ccc(NC(=O)Cc3ccc(C)cc3)c(C(=O)c3ccccc3)c2)cc1
6500 | Cc1ccc(CC(=O)Nc2ccc(NC(=O)/C=C/c3ccc([N+](=O)[O-])cc3)cc2C(=O)c2ccccc2)cc1
5700 | Cc1ccc(CC(=O)Nc2ccc(NC(=O)/C=C/c3ccc(C(F)(F)F)cc3)cc2C(=O)c2ccccc2)cc1
40000 | Cc1ccc(CC(=O)Nc2ccc(NC(=O)/C=C/c3ccc(C=O)cc3)cc2C(=O)c2ccccc2)cc1
3200 | Cc1ccc(CC(=O)Nc2ccc(NC(=O)/C=C/c3ccc(Br)cc3)cc2C(=O)c2ccccc2)cc1
9.3 | CCCCN(CCCC)CCC(O)c1cc2c(Cl)cc(Cl)cc2c2cc(C(F)(F)F)ccc12 (stereo unspecified) [HALOFANTRINE]
3000 | Cc1ccc(CC(=O)Nc2ccc(NC(=O)/C=C/c3ccc(C(C)(C)C)cc3)cc2C(=O)c2ccccc2)cc1
> 100000 | Cc1ccc(CC(=O)Nc2ccc(NC(=O)/C=C/c3ccc(C#N)cc3)cc2C(=O)c2ccccc2)cc1
1200 | Cc1ccc(CC(=O)Nc2ccc(NC(=O)/C=C/c3ccc(C(C)C)cc3)cc2C(=O)c2ccccc2)cc1
1000 | COC(=O)c1ccc(/C=C/C(=O)Nc2ccc(NC(=O)Cc3ccc(C)cc3)c(C(=O)c3ccccc3)c2)cc1
1300 | COc1ccc(/C=C/C(=O)Nc2ccc(NC(=O)Cc3ccc(C)cc3)c(C(=O)c3ccccc3)c2)cc1
5500 | Cc1ccc(CC(=O)Nc2ccc(NC(=O)/C=C/c3ccc(Cl)cc3)cc2C(=O)c2ccccc2)cc1

Structure (SMILES) | IC50 [nM]
CC1(C)N=C(N)N=C(N)N1c1ccc(Cl)cc1 [CYCLOGUANIL] | 2200
Cc1ccc(CC(=O)Nc2ccc(NC(=O)CCc3ccccc3)cc2C(=O)c2ccccc2)cc1 | 2700
CCc1nc(N)nc(N)c1-c1ccc(Cl)cc1 [PYRIMETHAMINE] | 2500
C=C[C@H]1CN2CC[C@H]1C[C@H]2[C@H](O)c1ccnc2ccc(OC)cc12 [QUININE] | 380
O=C1C(O)=C([C@H]2CC[C@H](c3ccc(Cl)cc3)CC2)C(=O)c2ccccc21 [ATOVAQUONE] | 1
OC(c1cc(C(F)(F)F)nc2c(C(F)(F)F)cccc12)C1CCCCN1 (stereo unspecified) [MEFLOQUINE] | 57
C[C@@H]1CC[C@H]2[C@@H](C)C(=O)O[C@@H]3O[C@@]4(C)CC[C@@H]1[C@]32OO4 [ARTEMISININ] | 18
